Laboratory results reported in patent US8394952B2 (Vertex Pharmaceuticals Incorporated, priority 2006, dated 2013).

biological target: Plk1 (Homo sapiens, UniProt P53350); assay: biochemical
Sequence (P53350 20-338): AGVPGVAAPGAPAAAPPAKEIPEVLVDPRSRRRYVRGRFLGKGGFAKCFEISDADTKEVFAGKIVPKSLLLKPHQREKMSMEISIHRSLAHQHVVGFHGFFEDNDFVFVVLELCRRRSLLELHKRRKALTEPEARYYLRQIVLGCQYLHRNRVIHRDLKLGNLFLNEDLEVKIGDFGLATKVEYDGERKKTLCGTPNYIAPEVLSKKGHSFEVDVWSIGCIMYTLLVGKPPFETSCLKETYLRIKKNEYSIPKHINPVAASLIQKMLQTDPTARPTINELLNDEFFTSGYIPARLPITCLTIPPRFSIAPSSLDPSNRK

Row | Compound | Ki [nM]
1 | COc1ccccc1Nc1ncc2c(n1)N(C1CCCC1)CCC(=O)N2C [Compound I-188, 9-cyclopentyl-2-(2-methoxyphenylamino)-5-methyl-8,9-dihydro-5H-pyrimido[4,5-b][1,4]diazepin-6(7H)-one] | 10 to 100
2 | CNC(=O)c1ccc(Nc2ncc3c(n2)N(C2CCCC2)CCc2nncn2-3)c(OC)c1 [Compound I-42, 4-(6-Cyclopentyl-5,6-dihydro-4H-2,3,6,7,9,10b-hexaaza-benzo[e]azulen-8-ylamino)-3-methoxy-N-methylbenzamide] | 10 to 100
3 | CN1C(=O)C(C)(C)CN(C2CCCC2)c2nc(Nc3ccc4nc[nH]c4c3)ncc21 [Compound I-43, 2-(1H-benzo[d]imidazol-6-ylamino)-9-cyclopentyl-8,9-dihydro-5,7,7-trimethyl-5H-pyrimido[4,5-b][1,4]diazepin-6(7H)-one] | 10 to 100
4 | COc1cc(C(=O)N[C@H](CO)C(C)C)ccc1Nc1ncc2c(n1)N(C1CCCC1)CC(C)(C)C(=O)N2C [Compound I-239, (S)-4-(9-cyclopentyl-5,7,7-trimethyl-6-oxo-6,7,8,9-tetrahydro-5H-pyrimido[4,5-b][1,4]diazepin-2-ylamino)-N-(1-hydroxy-3-methylbutan-2-yl)-3-methoxybenzamide] | < 10
5 | COc1ccc(NC(C)=O)cc1Nc1ncc2c(n1)N(C1CCCC1)CC(C)(C)C(=O)N2C [Compound I-158, N-(3-(9-cyclopentyl-6,7,8,9-tetrahydro-5,7,7-trimethyl-6-oxo-5H-pyrimido[4,5-b][1,4]diazepin-2-ylamino)-4-methoxyphenyl)acetamide] | < 10
6 | COc1cc(C(=O)NC2CN(CC3CC3)C2)ccc1Nc1ncc2c(n1)N(C1CCCC1)CC(C)(C)C(=O)N2C [Compound I-53, 4-(9-cyclopentyl-6,7,8,9-tetrahydro-5,7,7-trimethyl-6-oxo-5H-pyrimido[4,5-b][1,4]diazepin-2-ylamino)-N-(1-(cyclopropylmethyl)azetidin-3-yl)-3-methoxybenzamide] | < 10
7 | COc1cc(C(=O)N(C)C)ccc1Nc1ncc2c(n1)N(C1CCCC1)CC(C)(C)C(=O)N2C [Compound I-215, 4-(9-cyclopentyl-5,7,7-trimethyl-6-oxo-6,7,8,9-tetrahydro-5H-pyrimido[4,5-b][1,4]diazepin-2-ylamino)-3-methoxy-N,N-dimethylbenzamide] | 10 to 100
8 | CCN1CCC(NC(=O)c2ccc(Nc3ncc4c(n3)N(C3CCCC3)CC(C)(C)C(=O)N4C)c(OC)c2)CC1 [Compound I-72] | < 10
9 | COc1cc(C(=O)N[C@@H]2CC[C@@H](O)C2)ccc1Nc1ncc2c(n1)N(C1CCCC1)CC1(CC1)C(=O)N2C [Compound I-282, 4-(9′-cyclopentyl-5′-methyl-6′-oxo-5′,6′,8′,9′-tetrahydrospiro[cyclopropane-1,7′-pyrimido[4,5-b][1,4]diazepine]-2′-ylamino)-N-((1R,3R)-3-hydroxycyclopentyl)-3-methoxybenzamide] | < 10
10 | CCCN1CCC(NC(=O)c2ccc(Nc3ncc4c(n3)N(C3CCCC3)CC(C)(C)C(=O)N4C)c(OC)c2)CC1 [Compound I-69] | < 10
11 | COC(=O)Nc1ccc(Nc2ncc3c(n2)N(C2CCCC2)CC(C)(C)C(=O)N3C)c(OC)c1 [Compound I-103, Methyl 4-(9-cyclopentyl-5,7,7-trimethyl-6-oxo-6,7,8,9-tetrahydro-5H-pyrimido[4,5-b][1,4]diazepin-2-ylamino)-3-methoxyphenylcarbamate] | < 10
12 | COc1cc(C(=O)N[C@@H]2CCC[C@H]2O)ccc1Nc1ncc2c(n1)N(C1CCCC1)CC1(CC1)C(=O)N2C [Compound I-272, 4-(9′-cyclopentyl-5′-methyl-6′-oxo-5′,6′,8′,9′-tetrahydrospiro[cyclopropane-1,7′-pyrimido[4,5-b][1,4]diazepine]-2′-ylamino)-N-((1R,2R)-2-hydroxycyclopentyl)-3-methoxybenzamide] | < 10
13 | COc1cc(C(=O)NC2CCN(C)CC2)ccc1Nc1ncc2c(n1)N(C1CCCC1)CC(C)(C)C(=O)N2C [Compound I-23, 4-(9-cyclopentyl-6,7,8,9-tetrahydro-5,7,7-trimethyl-6-oxo-5H-pyrimido[4,5-b][1,4]diazepin-2-ylamino)-3-methoxy-N-(1-methylpiperidin-4-yl)benzamide] | < 10
14 | COc1cc(C(=O)NC2CCCC2)ccc1Nc1ncc2c(n1)N(C1CCCC1)CC1(CC1)C(=O)N2C [Compound I-176, N-cyclopentyl-4-(9′-cyclopentyl-5′-methyl-6′-oxo-5′,6′,8′,9′-tetrahydrospiro[cyclopropane-1,7′-pyrimido[4,5-b][1,4]diazepine]-2′-ylamino)-3-methoxybenzamide] | < 10
15 | COc1cc(C(=O)N2CC[C@H](F)C2)ccc1Nc1ncc2c(n1)N(C1CCCC1)CC(C)(C)C(=O)N2C [Compound I-32, 9-Cyclopentyl-2-[4-((S)-3-fluoro-pyrrolidine-1-carbonyl)-2-methoxyphenylamino]-5,7,7-trimethyl-5,7,8,9-tetrahydropyrimido[4,5-b][1,4]diazepin-6-one] | < 10

More lines, now with the values ahead:

Row | Ki [nM] | Compound
16 | < 10 | COc1cc(C(=O)Nc2ccncn2)ccc1Nc1ncc2c(n1)N(C1CCCC1)CC(C)(C)C(=O)N2C [Compound I-222, 4-(9-cyclopentyl-5,7,7-trimethyl-6-oxo-6,7,8,9-tetrahydro-5H-pyrimido[4,5-b][1,4]diazepin-2-ylamino)-3-methoxy-N-(pyrimidin-4-yl)benzamide]
17 | < 10 | COc1cc(C(=O)NCc2ccccc2)ccc1Nc1ncc2c(n1)N(C1CCCC1)CC(C)(C)C(=O)N2C [Compound I-201]
18 | < 10 | COc1cc(C(=O)NC2CCOCC2)ccc1Nc1ncc2c(n1)N(C1CCCC1)CC(C)(C)C(=O)N2C [Compound I-134, 4-(9-cyclopentyl-6,7,8,9-tetrahydro-5,7,7-trimethyl-6-oxo-5H-pyrimido[4,5-b][1,4]diazepin-2-ylamino)-N-(tetrahydro-2H-pyran-4-yl)-3-methoxybenzamide]
19 | < 10 | COc1cc(C(=O)Nc2cc(C)ns2)ccc1Nc1ncc2c(n1)N(C1CCCC1)CC(C)(C)C(=O)N2C [Compound I-232, 4-(9-cyclopentyl-5,7,7-trimethyl-6-oxo-6,7,8,9-tetrahydro-5H-pyrimido[4,5-b][1,4]diazepin-2-ylamino)-3-methoxy-N-(3-methylisothiazol-5-yl)benzamide]
20 | < 10 | COc1cc(C(=O)N2CC(OC)C2)ccc1Nc1ncc2c(n1)N(C1CCCC1)CC(C)(C)C(=O)N2C [Compound I-220, 9-cyclopentyl-2-(2-methoxy-4-(3-methoxyazetidine-1-carbonyl)phenylamino)-5,7,7-trimethyl-8,9-dihydro-5H-pyrimido[4,5-b][1,4]diazepin-6(7H)-one]
21 | < 10 | COc1cc(C(=O)NC2CCN(C(C)C)CC2)ccc1Nc1ncc2c(n1)N(C1CCCC1)CC(C)(C)C(=O)N2C [Compound I-67]
22 | < 10 | COc1cc(C(=O)NC2CC(C)(C)N(C)C(C)(C)C2)ccc1Nc1ncc2c(n1)N(C1CCCC1)CC(C)(C)C(=O)N2C [Compound I-68, 4-(9-cyclopentyl-6,7,8,9-tetrahydro-5,7,7-trimethyl-6-oxo-5H-pyrimido[4,5-b][1,4]diazepin-2-ylamino)-3-methoxy-N-(1,2,2,6,6-pentamethylpiperidin-4-yl)-benzamide]
